Results on 14 molecules are retold here after patent publication US9796733B2, “Imidazo-pyrazine derivatives useful as soluble guanylate cyclase activators” (Merck Sharp & Dohme Corp., priority 2014, dated 2017).

One experiment has as its target T1, sGC α1/β1 heterodimer (Homo sapiens, UniProt Q02108+Q02153).
T1 construct: expressed in transfected cells; host or cells: CHO-K1 (clone #7, CHO-K1/sGC)
T1 sequence (Q02108 1-690): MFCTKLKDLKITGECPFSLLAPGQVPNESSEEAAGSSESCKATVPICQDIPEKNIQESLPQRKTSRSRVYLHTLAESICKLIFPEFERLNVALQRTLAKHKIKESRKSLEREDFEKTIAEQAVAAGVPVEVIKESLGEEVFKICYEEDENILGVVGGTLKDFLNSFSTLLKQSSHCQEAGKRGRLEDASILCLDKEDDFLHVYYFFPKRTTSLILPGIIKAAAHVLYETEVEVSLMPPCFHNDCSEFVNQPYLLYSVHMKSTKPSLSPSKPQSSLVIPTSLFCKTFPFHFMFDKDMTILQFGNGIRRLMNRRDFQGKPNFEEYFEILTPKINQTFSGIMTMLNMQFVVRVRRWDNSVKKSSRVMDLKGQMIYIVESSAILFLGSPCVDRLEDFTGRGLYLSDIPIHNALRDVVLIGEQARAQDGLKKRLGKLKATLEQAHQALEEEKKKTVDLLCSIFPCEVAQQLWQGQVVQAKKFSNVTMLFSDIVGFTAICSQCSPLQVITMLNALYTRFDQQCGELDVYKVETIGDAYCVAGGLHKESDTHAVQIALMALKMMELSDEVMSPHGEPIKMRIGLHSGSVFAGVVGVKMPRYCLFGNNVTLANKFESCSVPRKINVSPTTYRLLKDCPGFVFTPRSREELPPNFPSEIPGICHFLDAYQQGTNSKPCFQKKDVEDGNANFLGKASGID
T1 sequence (Q02153 1-619): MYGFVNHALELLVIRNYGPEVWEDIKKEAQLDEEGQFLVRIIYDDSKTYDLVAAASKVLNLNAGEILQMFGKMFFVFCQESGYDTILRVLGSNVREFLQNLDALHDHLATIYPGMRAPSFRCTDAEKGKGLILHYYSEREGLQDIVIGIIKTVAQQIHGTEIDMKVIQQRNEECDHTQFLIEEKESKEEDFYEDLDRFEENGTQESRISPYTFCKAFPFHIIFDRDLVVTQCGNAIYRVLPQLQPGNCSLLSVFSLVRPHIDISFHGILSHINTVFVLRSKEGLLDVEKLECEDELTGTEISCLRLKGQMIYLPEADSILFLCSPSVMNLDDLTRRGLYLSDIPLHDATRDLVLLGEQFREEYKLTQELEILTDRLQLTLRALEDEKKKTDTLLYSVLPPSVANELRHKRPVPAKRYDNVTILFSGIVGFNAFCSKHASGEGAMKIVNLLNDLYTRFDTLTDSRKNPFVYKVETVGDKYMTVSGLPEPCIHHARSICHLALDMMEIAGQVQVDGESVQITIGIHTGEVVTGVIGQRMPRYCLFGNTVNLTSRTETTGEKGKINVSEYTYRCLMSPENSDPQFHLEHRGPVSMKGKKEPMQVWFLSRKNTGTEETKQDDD
In words: Cell-based sGC functional assay (CASA assay): cGMP generation in CHO-K1/sGC cells, HTRF detection. The note with it: for Emax: CHO-K1, percent activation relative to standard Compound A in CHO-K1/sGC cells, read-out: % Act.; for pEC50: inflection point (IP) of cGMP generation in CHO-K1/sGC cells, 4P fit, activity expressed as percentage of Compound A; for % Act.: percent activation relative to standard Compound A in CHO-K1/sGC cells. In short, it runs like this:
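cGMP was quantified by HTRF after 1 hr, 37° C exposure of thawed CHO-K1 cells expressing sGC α1/β1 to compound, with or without 1 μM DETA-NO. IBMX (0.5 mM) blocked cGMP breakdown, and DMSO was 2.5% final. Percent of standard Compound A's maximal cGMP was fitted (4P) for inflection point.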

In experiment [1] the test system is Spontaneously hypertensive rats (SHR). In words: Acute efficacy in spontaneously hypertensive rats (SHR): telemetry blood pressure lowering after a single oral dose. The format is in vivo, rat. The procedure, abridged: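 Values are the maximum peak fall in systolic pressure after one oral dose (mpk), computed hourly against baseline from a vehicle dose given the day before. Rats were conscious, male, spontaneously hypertensive, with femoral-aortic telemetry recording 30 s every 10 min, 14 days post-surgery.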

pEC50: −log10 of the molar value.

The term pEC50 denotes −log10 of the EC50, conventionally taken in molar units.

Take `Cc1cn2cc(-c3nc(N)c4c(n3)NC(=O)C4(C)c3ccc(F)cn3)nc(CCC(F)(F)C(F)(F)F)c2n1` (stereo not drawn) [Example 172A, 4-amino-5-(5-fluoropyridin-2-yl)-5-methyl-2-(2-methyl-8-(3,3,4,4,4-pentafluorobutyl)imidazo [1,2-a]pyrazin-6-yl)-5H-pyrrolo[2,3-d]pyrimidin-6(7H)-one]: on sGC α1/β1 heterodimer, the Emax was found to be 124% and the negative logarithm of the EC50 (pEC50) was 6.20. In addition, in experiment [1] (P.O. 3.0 mpk), the “Maximum peak decrease of systolic blood pressure (SBP) in SHR, Cat.” value (from here on “Maximum peak decrease”) is on record as “B (Category B=SBP in SHRs 20-40 mmHg)”.
Consider `CCCCc1nc(-c2nc(N)c3c(n2)NC(=O)C3(C)c2ccc(Cl)cc2)cn2ccnc12` (stereo not drawn) [Example 10A, 4-amino-2-(8-butylimidazo[1,2-a]pyrazin-6-yl)-5-(4-chlorophenyl)-5-methyl-5H-pyrrolo[2,3-d]pyrimidin-6(7H)-one], for which, on sGC α1/β1 heterodimer, the Emax stood at 120% and the pEC50 was 7.25. In addition, the “Maximum peak decrease” value in experiment [1] (P.O. 0.3 mpk) was “C (Category C=SBP in SHRs>40 mmHg)”.
Consider `CCCCc1nc(-c2nc(N)c3c(n2)NC(=O)C3(C)c2ccc(C(F)(F)F)cn2)cn2cc(C)nc12` (stereo not drawn) [Example 166B, 4-amino-2-(8-butyl-2-methylimidazo[1,2-a]pyrazin-6-yl)-5-methyl-5-(5-(trifluoromethyl)pyridin-2-yl)-5H-pyrrolo[2,3-d]pyrimidin-6(7H)-one], for which, on sGC α1/β1 heterodimer, the Emax was found to be 94% and the negative-log EC50 (pEC50) is 6.92. Also, the “Maximum peak decrease” value in experiment [1] (P.O. 1.0 mpk) is listed as “A (Category A=SBP in SHRs<20 mmHg)”.
`Nc1nc(-c2cn3ccnc3c(Cc3cccc(F)c3)n2)nc2c1C(C(=O)NC1CC1)(C1CC1)C(=O)N2` (single isomer, unassigned) [Example 38B, 4-amino-N,5-dicyclopropyl-2-(8-(3-fluorobenzyl)imidazo[1,2-a]pyrazin-6-yl)-6-oxo-6,7-dihydro-5H-pyrrolo[2,3-d]pyrimidine-5-carboxamide]: at sGC α1/β1 heterodimer, the pEC50 is 8.15 and the “% Act.” value was 103%. Also, the “Maximum peak decrease” value in experiment [1] (P.O. 0.3 mpk) is on record as “B (Category B=SBP in SHRs 20-40 mmHg)”.
Turning to `CC1(c2ccc(F)cn2)C(=O)Nc2nc(-c3cn4ccnc4c(CCC(F)(F)C(F)(F)F)n3)nc(N)c21` (stereo not drawn) [Example 246B, 4-amino-5-(5-fluoropyridin-2-yl)-5-methyl-2-(8-(3,3,4,4,4-pentafluorobutyl)imidazo [1,2-a]pyrazin-6-yl)-5H-pyrrolo[2,3-d]pyrimidin-6(7H)-one], on sGC α1/β1 heterodimer, the Emax was found to be 114% and the pEC50 was 6.89. For the same molecule, the “Maximum peak decrease” value in experiment [1] (P.O. 1.0 mpk) is listed as “B (Category B=SBP in SHRs 20-40 mmHg)”.
As to `Nc1nc(-c2cn3ccnc3c(CCCC(F)(F)F)n2)nc2c1C(c1ccc(Cl)cn1)(C1CC1)C(=O)N2` (stereo not drawn) [Example 218B, 4-amino-5-(5-chloropyridin-2-yl)-5-cyclopropyl-2-(8-(4,4,4-trifluorobutyl)imidazo[1,2-a]pyrazin-6-yl)-5H-pyrrolo[2,3-d]pyrimidin-6(7H)-one], on sGC α1/β1 heterodimer, the Emax was determined as 126% and the negative logarithm of the EC50 (pEC50) was 6.60. The “Maximum peak decrease” value in experiment [1] (P.O. 1.0 mpk) is recorded as “C (Category C=SBP in SHRs>40 mmHg)”.
`CCOc1ccc(C2(C)C(=O)Nc3nc(-c4cn5ccnc5c(CCC(F)(F)C(F)(F)F)n4)nc(N)c32)cn1` (stereo not drawn) [Example 244B, 4-amino-5-(6-ethoxypyridin-3-yl)-5-methyl-2-(8-(3,3,4,4,4-pentafluorobutyl)imidazo [1,2-a]pyrazin-6-yl)-5H-pyrrolo[2,3-d]pyrimidin-6(7H)-one]: on sGC α1/β1 heterodimer, the Emax was determined as 109% and the negative-log EC50 (pEC50) is 7.09. Moreover, the “Maximum peak decrease” value in experiment [1] (P.O. 3.0 mpk) is reported as “C (Category C=SBP in SHRs>40 mmHg)”.
With `Nc1nc(-c2cn3ccnc3cn2)nc2c1C(c1ccc(Cl)c(F)c1)(C1CC1)C(=O)N2` (stereo not drawn) [Example 137B, 4-amino-5-(4-chloro-3-fluorophenyl)-5-cyclopropyl-2-(imidazo[1,2-a]pyrazin-6-yl)-5H-pyrrolo[2,3-d]pyrimidin-6(7H)-one], on sGC α1/β1 heterodimer, the Emax turned out to be 108% and the pEC50 is 6.87. The “Maximum peak decrease” value in experiment [1] (P.O. 1.0 mpk) is reported as “B (Category B=SBP in SHRs 20-40 mmHg)”.
Regarding `CC1(c2ccc(Cl)cc2F)C(=O)Nc2nc(-c3cn4ccnc4c(CCC(F)(F)F)n3)nc(N)c21` (stereo not drawn) [Example 179A, 4-amino-5-(4-chloro-2-fluorophenyl)-5-methyl-2-(8-(3,3,3-trifluoropropyl)imidazo[1,2-a]pyrazin-6-yl)-5H-pyrrolo[2,3-d]pyrimidin-6(7H)-one], at sGC α1/β1 heterodimer, the Emax is 129% and the pEC50 was 7.35. Further, in experiment [1] (P.O. 1.0 mpk), the “Maximum peak decrease” value was “C (Category C=SBP in SHRs>40 mmHg)”.
With `CC1(c2ccc(F)cc2)C(=O)Nc2nc(-c3cn4ccnc4c(CCC(F)(F)C(F)(F)F)n3)nc(N)c21` (single isomer, unassigned) [Example 68A, 4-Amino-5-(4-fluorophenyl)-5-methyl-2-(8-(3,3,4,4,4-pentafluorobutyl)imidazo[1,2-a]pyrazin-6-yl)-5H-pyrrolo[2,3-d]pyrimidin-6(7H)-one], at sGC α1/β1 heterodimer, the negative-log EC50 (pEC50) was 7.43 and the “% Act.” value is on record as 112%. Also, the “Maximum peak decrease” value in experiment [1] (P.O. 0.3 mpk) is “C (Category C=SBP in SHRs>40 mmHg)”.
On to `Nc1nc(-c2cn3ccnc3c(CCC(F)(F)F)n2)nc2c1C(c1ccc(Cl)cc1F)(C1CC1)C(=O)N2` (stereo not drawn) [Example 338A, 4-amino-5-(4-chloro-2-fluorophenyl)-5-cyclopropyl-2-(8-(3,3,3-trifluoropropyl)imidazo[1,2-a]pyrazin-6-yl)-5H-pyrrolo[2,3-d]pyrimidin-6(7H)-one], for which, on sGC α1/β1 heterodimer, the Emax was 158% and the pEC50 is 6.75. In addition, in experiment [1] (P.O. 2.0 mpk), the “Maximum peak decrease” value is “B (Category B=SBP in SHRs 20-40 mmHg)”.
As to `CCCCc1nc(-c2nc(N)c3c(n2)NC(=O)C3(C)c2ccc(Cl)cn2)cn2cc(C)nc12` (stereo not drawn) [Example 168A, 4-amino-2-(8-butyl-2-methylimidazo[1,2-a]pyrazin-6-yl)-5-(5-chloropyridin-2-yl)-5-methyl-5H-pyrrolo[2,3-d]pyrimidin-6(7H)-one], at sGC α1/β1 heterodimer, the Emax came out at 97% and the pEC50 was 6.82. Besides, in experiment [1] (P.O. 1.0 mpk), the “Maximum peak decrease” value is recorded as “B (Category B=SBP in SHRs 20-40 mmHg)”.
With `CCC1(c2ccc(F)cc2)C(=O)Nc2nc(-c3cn4ccnc4c(CCC(F)(F)C(F)(F)F)n3)nc(N)c21` (stereo not drawn) [Example 239A, 4-amino-5-ethyl-5-(4-fluorophenyl)-2-(8-(3,3,4,4,4-pentafluorobutyl)imidazo [1,2-a]pyrazin-6-yl)-5H-pyrrolo[2,3-d]pyrimidin-6(7H)-one], at sGC α1/β1 heterodimer, the Emax amounted to 97% and the pEC50 was 7.28. The “Maximum peak decrease” value in experiment [1] (P.O. 0.3 mpk) is reported as “B (Category B=SBP in SHRs 20-40 mmHg)”.
For the molecule `CC1(c2ccc(Cl)c(F)c2)C(=O)Nc2nc(-c3cn4ccnc4c(CCC(F)(F)F)n3)nc(N)c21` (stereo not drawn) [Example 178B, 4-amino-5-(4-chloro-3-fluorophenyl)-5-methyl-2-(8-(3,3,3-trifluoropropyl)imidazo[1,2-a]pyrazin-6-yl)-5H-pyrrolo[2,3-d]pyrimidin-6(7H)-one], on sGC α1/β1 heterodimer, the Emax came out at 106% and the pEC50 is 7.77. For the same molecule, the “Maximum peak decrease” value in experiment [1] (P.O. 0.3 mpk) is on record as “B (Category B=SBP in SHRs 20-40 mmHg)”.
